Laboratory results as given in EPA's CvTdb concentration-time database.

How the values were obtained:
Rat [1] = assay: concentration in plasma after dosing; settings: 0.5 h; dosed: 2-Methyltetrahydrofuran; 40 mg/kg; iv; Male; Harlan Sprague Dawley
Rat [2] = assay: concentration in plasma after dosing; settings: 0.5 h; dosed: 2-Methyltetrahydrofuran; 40 mg/kg; iv; Female; Harlan Sprague Dawley
Rat [3] = assay: concentration in plasma after dosing; settings: 6 h; dosed: 2-Methyltetrahydrofuran; 40 mg/kg; iv; Male; Harlan Sprague Dawley
Rat [4] = assay: concentration in brain after dosing; settings: 0.2 h; dosed: 2-Methyltetrahydrofuran; 40 mg/kg; iv; Male; Harlan Sprague Dawley
Rat [5] = assay: concentration in plasma after dosing; settings: 1.5 h; dosed: 2-Methyltetrahydrofuran; 40 mg/kg; iv; Male; Harlan Sprague Dawley
Rat [6] = assay: concentration in plasma after dosing; settings: 6 h; dosed: 2-Methyltetrahydrofuran; 40 mg/kg; iv; Male; Harlan Sprague Dawley; remark: listed apart in the source
Rat [7] = assay: concentration in plasma after dosing; settings: dosed: Fluorotelomer alcohol 8+2, 12 mg/kg, oral, Male, Harlan Sprague Dawley
Rat [8] = assay: concentration in brain after dosing; settings: 0.5 h; dosed: Fluorotelomer alcohol 8+2; 80 mg/kg; oral; Female; Harlan Sprague Dawley
Rat [9] = assay: concentration in brain after dosing; settings: 3 h; dosed: Fluorotelomer alcohol 8+2; 24 mg/kg; oral; Male; Harlan Sprague Dawley
Rat [10] = assay: concentration in plasma after dosing; settings: 192 h; dosed: 678-39-7; 12 mg/kg; iv; Male; F344
Rat [11] = assay: concentration in kidney after dosing; settings: 6 h; dosed: Fluorotelomer alcohol 8+2; 24 mg/kg; oral; Male; Harlan Sprague Dawley
Rat [12] = assay: concentration in liver after dosing; settings: 1 h; dosed: Fluorotelomer alcohol 8+2; 80 mg/kg; oral; Female; Harlan Sprague Dawley
Rat [13] = assay: concentration in plasma after dosing; settings: dosed: 678-39-7, 12 mg/kg, iv, Male, F344
Rat [14] = assay: concentration in plasma after dosing; settings: 10 min; dosed: Gemfibrozil; 50 mg/kg; oral; Male; Sprague-Dawley
Rat [15] = assay: concentration in plasma after dosing; settings: 0.5 h; dosed: Gemfibrozil; 100 mg/kg; oral; Male; Sprague-Dawley
Rat [16] = assay: concentration in plasma after dosing; settings: 1 h; dosed: Gemfibrozil; 4.29 mg/kg; oral; Male; Sprague-Dawley
Rat [17] = assay: concentration in plasma after dosing; settings: 5 min; dosed: Gemfibrozil; 100 mg/kg; oral; Male; Sprague-Dawley
Rat [18] = assay: concentration in plasma after dosing; settings: 1 h; dosed: Gemfibrozil; 50 mg/kg; oral; Male; Sprague-Dawley
Rat [19] = assay: concentration in plasma after dosing; settings: 0.25 h; dosed: Perfluorohexanoic Acid; 40 mg/kg; iv; Male; F344
Rat [20] = assay: concentration in plasma after dosing; settings: dosed: Perfluorohexanoic Acid, 40 mg/kg, oral, Male, Harlan Sprague Dawley
Rat [21] = assay: concentration in kidney after dosing; settings: 6 h; dosed: Perfluorohexanoic Acid; 80 mg/kg; oral; Female; Harlan Sprague Dawley
Rat [22] = assay: concentration in plasma after dosing; settings: dosed: Perfluorohexanoic Acid, 40 mg/kg, oral, Male, Harlan Sprague Dawley; remark: listed apart in the source
Rat [23] = assay: concentration in plasma after dosing; settings: dosed: Perfluorohexanoic Acid, 40 mg/kg, iv, Male, F344
Rat [24] = assay: concentration in plasma after dosing; settings: dosed: Perfluorohexanoic Acid, 40 mg/kg, oral, Male, Harlan Sprague Dawley; remark: listed apart in the source
Rat [25] = assay: concentration in plasma after dosing; settings: 0.75 h; dosed: Perfluorohexanoic Acid; 80 mg/kg; oral; Male; Harlan Sprague Dawley
Rat [26] = assay: concentration in kidney after dosing; settings: 1848 h; dosed: Perfluorooctane Sulfonate; 2 mg/kg; oral; Female; Harlan Sprague Dawley
Rat [27] = assay: concentration in liver after dosing; settings: 6 h; dosed: Perfluorooctane Sulfonate; 2 mg/kg; oral; Female; Harlan Sprague Dawley
Rat [28] = assay: concentration in kidney after dosing; settings: 1848 h; dosed: Perfluorooctane Sulfonate; 2 mg/kg; oral; Female; Harlan Sprague Dawley; remark: listed apart in the source
Rat [29] = assay: concentration in liver after dosing; settings: 3360 h; dosed: Perfluorooctane Sulfonate; 20 mg/kg; oral; Male; Harlan Sprague Dawley
Rat [30] = assay: concentration in kidney after dosing; settings: 1848 h; dosed: Perfluorooctane Sulfonate; 2 mg/kg; oral; Female; Harlan Sprague Dawley; remark: listed apart in the source
Rat [31] = assay: concentration in plasma after dosing; settings: dosed: Perfluorooctane Sulfonate, 2 mg/kg, iv, Male, F344
Rat [32] = assay: concentration in brain after dosing; settings: 6 h; dosed: Perfluorooctane Sulfonate; 20 mg/kg; oral; Female; F344
Rat [33] = assay: concentration in plasma after dosing; settings: 6 h; dosed: Perfluorooctane Sulfonate; 2 mg/kg; oral; Female; Harlan Sprague Dawley
Rat [34] = assay: concentration in plasma after dosing; settings: dosed: Perfluorooctane Sulfonate, 2 mg/kg, oral, Female, Harlan Sprague Dawley
Rat [35] = assay: concentration in brain after dosing; settings: 24 h; dosed: Perfluorooctane Sulfonate; 20 mg/kg; oral; Male; Harlan Sprague Dawley
Rat [36] = assay: concentration in liver after dosing; settings: 3360 h; dosed: Perfluorooctane Sulfonate; 2 mg/kg; oral; Female; Harlan Sprague Dawley
Rat [37] = assay: concentration in plasma after dosing; settings: 6 h; dosed: Perfluorooctane Sulfonate; 2 mg/kg; oral; Female; Harlan Sprague Dawley; remark: listed apart in the source
Rat [38] = assay: concentration in liver after dosing; settings: 24 h; dosed: Perfluorooctane Sulfonate; 2 mg/kg; oral; Female; Harlan Sprague Dawley
Rat [39] = assay: concentration in liver after dosing; settings: 3360 h; dosed: Perfluorooctane Sulfonate; 20 mg/kg; oral; Male; Harlan Sprague Dawley; remark: listed apart in the source
Rat [40] = assay: concentration in kidney after dosing; settings: 24 h; dosed: Perfluorooctane Sulfonate; 20 mg/kg; oral; Male; Harlan Sprague Dawley

CC1CCCO1 (centres undefined) [2-Methyltetrahydrofuran]
Settings | concentration in brain [ng/mL] | concentration in plasma [ng/mL]
Rat [1] | – | 25100
Rat [2] | – | 27200
Rat [3] | – | 16.9
Rat [4] | 30800 | –
Rat [5] | – | 19300
Rat [6] | – | 10.8

O=C(O)CCC(F)(F)C(F)(F)C(F)(F)C(F)(F)C(F)(F)C(F)(F)C(F)(F)F [Fluorotelomer acid 7+3]
concentration in plasma [ng/mL]
Settings | 0.75 h | 1 h | 12 h | 24 h
Rat [7] | – | 334 | – | 377
Rat [13] | 365 | – | 74.1 | –

Settings | concentration in brain [ng/g] | concentration in kidney [ng/g] | concentration in liver [ng/g] | concentration in plasma [ng/mL]
Rat [8] | 152 | – | – | –
Rat [9] | 440 | – | – | –
Rat [10] | – | – | – | 13.6
Rat [11] | – | 822 | – | –
Rat [12] | – | – | 1620 | –

Cc1ccc(C)c(OCCCC(C)(C)C(=O)O)c1 [Gemfibrozil]
Settings | concentration in plasma [ng/mL]
Rat [14] | 76500
Rat [15] | 33900
Rat [16] | 258
Rat [17] | 1930
Rat [18] | 3370

O=C(O)C(F)(F)C(F)(F)C(F)(F)C(F)(F)C(F)(F)F [Perfluorohexanoic Acid]
Settings | concentration in kidney [ng/g] | concentration in plasma [ng/mL]
Rat [19] | – | 14700
Rat [21] | 9420 | –
Rat [25] | – | 129000

Settings | concentration in plasma [ng/mL]
Rat [20], 3 h | 48700
Rat [20], 5 min | 28800
Rat [22], 1 h | 39400
Rat [22], 24 h | 423
Rat [23], 3 h | 34.9
Rat [23], 5 min | 18500
Rat [24], 0.75 h | 46400
Rat [24], 12 h | 6500

O=S(=O)([O-])C(F)(F)C(F)(F)C(F)(F)C(F)(F)C(F)(F)C(F)(F)C(F)(F)C(F)(F)F [Perfluorooctane Sulfonate]
Settings | concentration in brain [ng/g] | concentration in kidney [ng/g] | concentration in liver [ng/g] | concentration in plasma [ng/mL]
Rat [26] | – | 2040 | – | –
Rat [27] | – | – | 27200 | –
Rat [28] | – | 2450 | – | –
Rat [29] | – | – | 29800 | –
Rat [30] | – | 860 | – | –
Rat [32] | 3430 | – | – | –
Rat [33] | – | – | – | 4920
Rat [35] | 9740 | – | – | –
Rat [36] | – | – | 9920 | –
Rat [37] | – | – | – | 4580
Rat [38] | – | – | 23800 | –
Rat [39] | – | – | 29100 | –
Rat [40] | – | 67900 | – | –

concentration in plasma [ng/mL]
Settings | 5 min | 12 h | 1200 h
Rat [31] | – | 5170 | 1700
Rat [34] | 38.2 | 7740 | 892
